target: JAK1 (Homo sapiens (Human), UniProt P23458); assay: Analysis of JAK1 activity inhibition ability (ADP-Glo Kinase Assay); type: biochemical; details: JAK1 enzyme, ADP-Glo luminescence, ATP 250 uM, IRS-itide substrate, 30° C. 40 minutes; read-out: IC50
In short: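 ADP-Glo luminescence read-out of ADP production, with IC50 taken as the concentration halving JAK1 activity relative to control. Enzyme was incubated 40 min at 30 °C with compound, IRS-itide (40 ng/mL) and ATP (250 uM), concentrations as prepared in pH 7.5 Tris-HCl/MgCl2/BSA/DTT buffer.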

Sequence of JAK1 (P23458 whole entry): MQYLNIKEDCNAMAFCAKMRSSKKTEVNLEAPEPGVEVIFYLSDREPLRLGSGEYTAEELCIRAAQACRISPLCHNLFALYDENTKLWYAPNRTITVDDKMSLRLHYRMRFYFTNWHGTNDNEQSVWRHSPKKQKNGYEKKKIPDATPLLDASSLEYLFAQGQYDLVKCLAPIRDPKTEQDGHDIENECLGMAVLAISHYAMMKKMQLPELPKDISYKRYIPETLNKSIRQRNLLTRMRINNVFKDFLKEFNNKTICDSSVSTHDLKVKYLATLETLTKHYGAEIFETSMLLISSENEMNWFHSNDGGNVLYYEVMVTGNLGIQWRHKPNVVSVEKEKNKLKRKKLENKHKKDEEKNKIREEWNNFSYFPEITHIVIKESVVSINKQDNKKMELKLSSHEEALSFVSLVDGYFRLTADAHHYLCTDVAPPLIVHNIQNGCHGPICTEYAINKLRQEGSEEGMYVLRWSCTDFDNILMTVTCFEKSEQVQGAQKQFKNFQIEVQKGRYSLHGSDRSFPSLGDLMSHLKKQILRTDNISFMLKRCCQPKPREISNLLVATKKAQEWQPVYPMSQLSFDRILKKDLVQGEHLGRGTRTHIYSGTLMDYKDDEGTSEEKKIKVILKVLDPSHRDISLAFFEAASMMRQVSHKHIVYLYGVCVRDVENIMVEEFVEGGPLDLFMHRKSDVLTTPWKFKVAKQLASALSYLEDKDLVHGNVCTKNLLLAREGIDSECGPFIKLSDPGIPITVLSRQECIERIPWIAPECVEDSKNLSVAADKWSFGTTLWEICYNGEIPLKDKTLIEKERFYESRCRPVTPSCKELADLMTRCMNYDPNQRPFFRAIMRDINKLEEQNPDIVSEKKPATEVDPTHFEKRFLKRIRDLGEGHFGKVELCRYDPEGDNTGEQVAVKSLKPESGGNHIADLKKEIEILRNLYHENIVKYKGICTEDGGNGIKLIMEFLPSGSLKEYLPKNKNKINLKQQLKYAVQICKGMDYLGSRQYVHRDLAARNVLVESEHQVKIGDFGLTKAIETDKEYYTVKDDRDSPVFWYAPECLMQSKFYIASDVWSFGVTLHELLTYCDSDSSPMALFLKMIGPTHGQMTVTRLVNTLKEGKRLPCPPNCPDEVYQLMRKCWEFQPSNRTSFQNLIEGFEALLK

Structure (SMILES)	IC50 [nM]
O=C(Nc1cc(C2=CCN(C(=O)N3CCOCC3)CC2)c2cc[nH]c2n1)C1CC1 [Example 446, N-(4-(1-(morpholine-4-carbonyl)-1,2,3,6-tetrahydropyridin-4-yl)-1H-pyrrolo[2,3-b]pyridin-6-yl)cyclopropanecarboxamide]	> 200
C[C@@H]1CN(C(=O)CC#N)CC=C1c1cc(NC(=O)C2CC2)nc2[nH]ccc12 [Example 304, (S)—N-(4-(1-(2-cyanoacetyl)-3-methyl-1,2,3,6-tetrahydropyridin-4-yl)-1H-pyrrolo[2,3-b]pyridin-6-yl)cyclopropanecarboxamide]	< 20
O=C(Nc1cc(C2=CCN(C(=O)c3ccncc3)CC2)c2cc[nH]c2n1)C1CC1 [Example 277, N-(4-(1-isonicotinoyl-1,2,3,6-tetrahydropyridin-4-yl)-1H-pyrrolo[2,3-b]pyridin-6-yl)cyclopropanecarboxamide]	> 200
CCCCS(=O)(=O)Nc1ccc(-c2cc(NC(=O)C3CC3)nc3[nH]ccc23)c(CC)c1 [Example 116, N-(4-(4-(butylsulfonamido)-2-ethylphenyl)-1H-pyrrolo[2,3-b]pyridin-6-yl)cyclopropanecarboxamide]	20 to 200
N#CCC(=O)N1CCN(c2nc(NC(=O)C3CC3)nc3[nH]ccc23)CC1 [Example 687, N-(4-(4-(2-cyanoacetyl)piperazin-1-yl)-7H-pyrrolo[2,3-d]pyrimidin-2-yl)cyclopropanecarboxamide]	> 200
Cc1cc(NS(=O)(=O)CC2(CC#N)CC2)ccc1-c1cc(NC(=O)C2CC2)nc2[nH]ccc12 [Example 103, N-(4-(4-(((1-(cyanomethyl)cyclopropyl)methyl)sulfonamido)-2-methylphenyl)-1H-pyrrolo[2,3-b]pyridin-6-yl)cyclopropanecarboxamide]	< 20
N#CCOC(=O)N1CC=C(c2cc(NC(=O)C3CC3)nc3[nH]ccc23)CC1 [Example 455, cyanomethyl 4-(6-(cyclopropanecarboxamido)-1H-pyrrolo[2,3-b]pyridin-4-yl)-3,6-dihydropyridine-1 (2H)-carboxylate]	< 20
Cc1c(NS(=O)(=O)C2CC2)ccc(-c2cc(NC(=O)C3CC3)[n+]([O-])c3[nH]ccc23)c1C [Example 136, 6-(cyclopropanecarboxamido)-4-(4-(cyclopropanesulfonamido)-2,3-dimethylphenyl)-1H-pyrrolo[2,3-b]pyridine 7-oxide]	20 to 200
CCS(=O)(=O)Nc1ccc(-c2cc(NC(=O)C3CC3)nc3[nH]cnc23)cc1 [Example 207, N-(7-(4-(ethylsulfonamido)phenyl)-3H-imidazo[4,5-b]pyridin-5-yl)cyclopropanecarboxamide]	> 200
C[C@@H]1CN(C(=O)c2ccc(Cl)nc2)CC=C1c1cc(NC(=O)C2CC2)nc2[nH]ccc12 [Example 400, (S)—N-(4-(1-(6-chloronicotinoyl)-3-methyl-1,2,3,6-tetrahydropyridin-4-yl)-1H-pyrrolo[2,3-b]pyridin-6-yl)cyclopropanecarboxamide]	< 20
CC(C)(C)OC(=O)N1CC2CCC(C1)N2c1cc(NC(=O)C2CC2)nc2[nH]ccc12 [Example 694, tert-butyl 8-(6-(cyclopropanecarboxamido)-1H-pyrrolo[2,3-b]pyridin-4-yl)-3,8-diazabicyclo[3.2.1]octane-3-carboxylate]	> 200
CC1CN(C2(CC#N)COC2)CC=C1c1cc(NC(=O)C2CC2)nc2[nH]ccc12 (centres unmarked) [Example 613, N-(4-(1-(3-(cyanomethyl)oxetan-3-yl)-3-methyl-1,2,3,6-tetrahydropyridin-4-yl)-1H-pyrrolo[2,3-b]pyridin-6-yl)cyclopropanecarboxamide]	20 to 200
O=C(Nc1cc(C2=CCC(NC3CN(C(=O)c4ccnc(F)c4)C3)CC2)c2cc[nH]c2n1)C1CC1 (centres unmarked) [Example 496, N-(4-(4-((1-(2-fluoroisonicotinoyl)azetidin-3-yl)amino)cyclohex-1-en-1-yl)-1H-pyrrolo[2,3-b]pyridin-6-yl)cyclopropanecarboxamide]	> 200
N#CCC(=O)N1[C@@H]2CC[C@H]1C=C(c1cc(NC(=O)C3CC3)nc3[nH]ccc13)C2 [Example 262, N-(4-((1S,5R)-8-(2-cyanoacetyl)-8-azabicyclo[3.2.1]oct-2-en-3-yl)-1H-pyrrolo[2,3-b]pyridin-6-yl)cyclopropanecarboxamide]	20 to 200
CC1CN(C(=O)C(C#N)Cc2ccc(F)cc2)CC=C1c1cc(NC(=O)C2CC2)nc2[nH]ccc12 (centres unmarked) [Example 359, N-(4-(1-(2-cyano-3-(4-fluorophenyl)propanoyl)-3-methyl-1,2,3,6-tetrahydropyridin-4-yl)-1H-pyrrolo[2,3-b]pyridin-6-yl)cyclopropanecarboxamide]	20 to 200
CCc1cc(-c2cc(NC(=O)C3CC3)nc3[nH]ccc23)ccc1NS(=O)(=O)C1CC1 [Example 125, N-(4-(4-(cyclopropanesulfonamido)-3-ethylphenyl)-1H-pyrrolo[2,3-b]pyridin-6-yl)cyclopropanecarboxamide]	< 20
C[C@H]1C=C(c2cc(NC(=O)C3CC3)nc3[nH]ccc23)CCN1C(=O)CC#N [Example 390, (S)—N-(4-(1-(2-cyanoacetyl)-6-methyl-1,2,3,6-tetrahydropyridin-4-yl)-1H-pyrrolo[2,3-b]pyridin-6-yl)cyclopropanecarboxamide]	< 20
O=C(Nc1cc(-c2ccc(NC3CCN(C(=O)CC(F)(F)F)CC3)cc2)c2cc[nH]c2n1)C1CC1 [Example 518, N-(4-(4-((1-(3,3,3-trifluoropropanoyl)piperidin-4-yl)amino)phenyl)-1H-pyrrolo[2,3-b]pyridin-6-yl)cyclopropanecarboxamide]	> 200
O=C(Nc1cc(-c2ccc(NC3CCN(C(=O)NCC(F)(F)F)CC3)cc2)c2cc[nH]c2n1)C1CC1 [Example 512, 4-((4-(6-(cyclopropanecarboxamido)-1H-pyrrolo[2,3-b]pyridin-4-yl)phenyl)amino)-N-(2,2,2-trifluoroethyl)piperidine-1-carboxamide]	20 to 200

Next, values leading:

IC50 [nM]	Structure (SMILES)
> 200	O=C(Nc1cc(-c2ccc(CS(=O)(=O)N3CCOCC3)cc2)c2cc[nH]c2n1)C1CC1 [Example 534, N-(4-(4-((morpholinosulfonyl)methyl)phenyl)-1H-pyrrolo[2,3-b]pyridin-6-yl)cyclopropanecarboxamide]
< 20	O=C(Nc1cc(-c2ccc(NS(=O)(=O)N3CCCC3)c(F)c2)c2cc[nH]c2n1)C1CC1 [Example 225, N-(4-(3-fluoro-4-(pyrrolidine-1-sulfonamido)phenyl)-1H-pyrrolo[2,3-b]pyridin-6-yl)cyclopropanecarboxamide]
< 20	CCC(CC)S(=O)(=O)Nc1ccc(-c2cc(NC(=O)C3CC3)nc3[nH]ccc23)cc1 [Example 42, N-(4-(4-((1-ethylpropyl)sulfonamido)phenyl)-1H-pyrrolo[2,3-b]pyridin-6-yl)cyclopropanecarboxamide]
> 200	CCS(=O)(=O)N1CC=C(c2cc(NC(=O)C3CC3)nc3[nH]ccc23)C(C)(C)C1 [Example 179, N-(4-(1-(ethylsulfonyl)-3,3-dimethyl-1,2,3,6-tetrahydropyridin-4-yl)-1H-pyrrolo[2,3-b]pyridin-6-yl)cyclopropanecarboxamide]
20 to 200	N#CC1CN(S(=O)(=O)Nc2ccc(-c3cc(NC(=O)C4CC4)nc4[nH]ccc34)cc2)C1 [Example 221, N-(4-(4-((3-cyanoazetidine)-1-sulfonamido)phenyl)-1H-pyrrolo[2,3-b]pyridin-6-yl)cyclopropanecarboxamide]
20 to 200	O=C(Nc1cc(-c2ccc(C(F)(F)C(=O)N3CCOCC3)cc2)c2cc[nH]c2n1)C1CC1 [Example 572, N-(4-(4-(1,1-difluoro-2-morpholino-2-oxoethyl)phenyl)-1H-pyrrolo[2,3-b]pyridin-6-yl)cyclopropanecarboxamide]
20 to 200	O=C(Nc1cc(-c2ccc(NS(=O)(=O)c3ccc4c(c3)CCO4)cc2)c2cc[nH]c2n1)C1CC1 [Example 22, N-(4-(4-((2,3-dihydrobenzofuran)-5-sulfonamido)phenyl)-1H-pyrrolo[2,3-b]pyridin-6-yl)cyclopropanecarboxamide]
20 to 200	N#CCC(=O)N1CCC(Nc2ccc(-c3cc(NC(=O)C4CC4)nc4[nH]ccc34)cc2)CC1 [Example 516, N-(4-(4-((1-(2-cyanoacetyl)piperidin-4-yl)amino)phenyl)-1H-pyrrolo[2,3-b]pyridin-6-yl)cyclopropanecarboxamide]
< 20	N#CC1(CS(=O)(=O)Nc2ccc(-c3cc(NC(=O)C4CC4)nc4[nH]ccc34)cc2)CC1 [Example 88, N-(4-(4-(((1-cyanocyclopropyl)methyl)sulfonamido)phenyl)-1H-pyrrolo[2,3-b]pyridin-6-yl)cyclopropanecarboxamide]
20 to 200	Cn1cc(S(=O)(=O)Nc2ccc(-c3cc(NC(=O)C4CC4)nc4[nH]ccc34)cc2)cn1 [Example 16, N-(4-(4-((1-methyl-1H-pyrazole)-4-sulfonamido)phenyl)-1H-pyrrolo[2,3-b]pyridin-6-yl)cyclopropanecarboxamide]
> 200	O=C(Nc1cc(-c2ccc(NC3CN(C(=O)Nc4ccc(F)cc4F)C3)cc2)c2cc[nH]c2n1)C1CC1 [Example 513, 3-((4-(6-(cyclopropanecarboxamido)-1H-pyrrolo[2,3-b]pyridin-4-yl)phenyl)amino)-N-(2,4-difluorophenyl)azetidine-1-carboxamide]
20 to 200	O=C(Nc1cc(-c2cnn(C3CCN(S(=O)(=O)C(F)(F)F)CC3)c2)c2cc[nH]c2n1)C1CC1 [Example 609, N-(4-(1-(1-((trifluoromethyl)sulfonyl)piperidin-4-yl)-1H-pyrazol-4-yl)-1H-pyrrolo[2,3-b]pyridin-6-yl)cyclopropanecarboxamide]
20 to 200	N#CC1(CS(=O)(=O)Nc2c(F)cc(-c3cc(NC(=O)C4CC4)nc4[nH]ccc34)cc2F)CC1 [Example 107, N-(4-(4-(((1-cyanocyclopropyl)methyl)sulfonamido)-3,5-difluorophenyl)-1H-pyrrolo[2,3-b]pyridin-6-yl)cyclopropanecarboxamide]

Reference: patent publication US11524968B2, “Heterocyclic compound as a protein kinase inhibitor” (HK inno.N Corporation, priority 2017, dated 2022)
